Values joined by “and” are separate entries in the source; they are usually repeats but may differ in a detail not shown here. Identical values can stand only once. “Also recorded” adds a separate entry of the source. Like-named read-outs stand apart in the source and are kept apart here.
Target: T1, FXR (Homo sapiens, UniProt Q96RI1)
T1 construct: using a full length FXR on a natural response element; expressed in transfected cells
T1 sequence (Q96RI1 1-486): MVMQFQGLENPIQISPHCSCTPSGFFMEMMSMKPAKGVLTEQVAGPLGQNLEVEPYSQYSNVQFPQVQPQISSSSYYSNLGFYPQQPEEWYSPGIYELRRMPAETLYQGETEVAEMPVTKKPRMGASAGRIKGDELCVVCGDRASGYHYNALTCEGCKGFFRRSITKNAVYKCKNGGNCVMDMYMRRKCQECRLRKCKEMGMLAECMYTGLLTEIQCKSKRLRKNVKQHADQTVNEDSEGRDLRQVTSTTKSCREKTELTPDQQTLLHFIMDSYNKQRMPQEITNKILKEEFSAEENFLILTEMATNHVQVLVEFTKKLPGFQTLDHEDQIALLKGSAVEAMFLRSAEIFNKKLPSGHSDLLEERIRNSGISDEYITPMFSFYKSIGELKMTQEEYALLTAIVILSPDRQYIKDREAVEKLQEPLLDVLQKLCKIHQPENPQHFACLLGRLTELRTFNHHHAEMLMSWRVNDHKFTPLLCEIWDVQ
Assay: cell-based transcription assay, FXR responsive promoter linked to a luciferase reporter
Design: RE: scale not given here
Conditions: for RE: RE not defined in the source
Source text: In addition to ensuring that only cell permeable compounds were selected for further optimization, this approach allows for the detection of FXR activation in a natural system (i.e., correct folding of the protein and in the presence of a complete compliment of co-activators and co-repressors).
The feasibility of creating high throughput screens (XIS) for ORs was explored using FXR as a candidate orphan receptor (OR) with a known activator, chenodeoxycholic acid (CDCA) as a ligand. The screen is based on the co-transfection of a full-length receptor with the reporter vector containing a natural hormone response element under a minimal eukaryotic promoter. […] Using this 384-well format, the high throughput screening (HTS) approach to FXR as a candidate OR was employed. […] A central question in the feasibility studies is whether this library is suitable for screening for nuclear receptor ligands. Samples of this library were first reformatted into a 384-well format and then subjected to the FXR cell-based assays described above and assessed for FXR-mediated transcriptional activity. Cells were exposed to approximately 10 μM of sample for 18 hrs prior to washing and luciferase analysis.
EC50 values were determined with Prism 3.0 software via the activity of the subject compound in the previously described cell based assay.

[1] = Tables 1-15, FXR activation, cell-based reporter assay, read-out: EC50
[2] = FXR activation, cell-based reporter assay, read-out: EC50
[3] = library screening hits and leads, read-out: activity (EC50)

Row | EC50 [1] [nM] | RE (Tables 1-15) | EC50 [2] | FXR activation (in words) (cell-based reporter assay) | EC50 [3] [nM] | Structure (SMILES)
1 | > 10000 | 0.09 | – | – | – | COC(=O)/C=C/c1cccc(N(Cc2ccc(-c3cccc(OC(F)(F)F)c3)cc2)C(=O)NC(C)C)c1 [Compound 255]
2 | > 1000 | 0.11 | – | – | – | COC(=O)/C=C/c1cccc(N(Cc2ccccc2Br)C(=O)C2CCCCC2)c1 [Compound 114]
3 | 3080 | 0.17 | – | – | – | COC(=O)/C=C/c1cccc(N(Cc2ccc(-c3cc(Cl)ccc3OC)cc2)C(=O)NC(C)C)c1 [Compound 243]
4 | – | 0.37 | – | – | – | COC(=O)/C=C/c1cccc(N(Cc2ccc(/C=C/c3ccc(C)cc3)cc2)C(=O)C(C)C)c1 [Compound 175]
5 | > 1000 | 0.83 | 1000 nM | – | – | COC(=O)/C=C/c1cccc(N(Cc2ccc3c(c2OC)OC(C)(C)C=C3)C(=O)c2ccccc2)c1 [Compound 68]
6 | – | 0.53 | 227 nM | – | – | COC(=O)C=Cc1cccc(N(Cc2ccc(C=Cc3scnc3C)cc2)C(=O)C2CCCCC2)c1 [Compound 210]
7 | 195 | 0.14 | – | – | – | COC(=O)/C=C/c1cccc(N(Cc2ccc(/C=C/c3c(Cl)cccc3Cl)cc2)C(=O)C(C)C)c1 [Compound 178]
8 | – | 1.78 | 206 nM | – | – | COC(=O)C=Cc1cccc(N(Cc2ccc(-c3ccc(C)s3)cc2)C(=O)C2CCCCC2)c1 [Compound 128]
9 | 109 | 1.43 | – | excellent activity | – | COC(=O)/C=C/c1cccc(N(Cc2ccc(-c3cccc(C)c3)cc2)C(=O)C2CCCCC2)c1 [Compound 238]
10 | – | 1.30 | 227 nM | – | – | COC(=O)/C=C/c1cccc(N(Cc2ccc(-c3cccc(C(C)=O)c3)cc2)C(=O)C2CCCCC2)c1 [Compound 127]
11 | 250 | 1.88 | 127 to 250 nM | – | – | COC(=O)/C=C/c1cccc(N(Cc2ccc(/C=C/C(=O)OC(C)(C)C)cc2)C(=O)C2CC2)c1 [Compound 140]
12 | 4010 | 0.09 | – | – | – | COC(=O)/C=C/c1cccc(N(Cc2ccc(-c3ccccc3OC)cc2)C(=O)NC(C)C)c1 [Compound 220]
13 | – | – | – | – | 5000 to 10000 | COc1c(CN(C(=O)C2CCCCC2)C(C)C)ccc2c1OC(C)(C)C=C2 [Compound 19]
14 | 310 | 0.62 | – | – | – | COC(=O)C=Cc1cccc(N(Cc2ccc(C=Cc3ccccn3)cc2)C(=O)C(C)C)c1 [Compound 208]
15 | 94 | 1.56 | – | excellent activity | – | COC(=O)/C=C/c1cccc(N(Cc2ccc(-c3cccc(Cl)c3)cc2)C(=O)C2CCCCC2)c1 [Compound 232]
16 | 449 | 0.80 | – | – | – | COC(=O)/C=C/c1cccc(N(Cc2ccc(-c3ccc(C)cc3)cc2)C(=O)NC(C)C)c1 [Compound 237]
17 | – | 0.61 | 309 nM | – | – | COC(=O)C=Cc1cccc(N(Cc2ccc(C=Cc3ccccn3)cc2)C(=O)C2CCCCC2)c1 [Compound 207]
18 | > 1000 | 0.16 | – | – | – | CCOC(=O)COc1cc(C=CC(=O)OC(C)(C)C)ccc1CN(C(=O)C1CCCCC1)c1cccc(C=CC(=O)OC)c1 [Compound 167]
19 | – | 0.64 | 333 nM | – | – | COC(=O)/C=C/c1cccc(N(Cc2ccc3c(c2OC)OC(C)(C)C2C3C2(Cl)Cl)C(=O)c2ccccc2)c1 (stereo not drawn) [Compound 102]
20 | 205 | 1.93 | 127 to 250 nM and 205 to 236 nM | – | – | COC(=O)/C=C/c1cccc(N(Cc2ccc(/C=C/C(=O)OC(C)(C)C)cc2)C(=O)c2ccco2)c1 [Compound 144]
21 | > 1000 | 1.06 | – | marked decline in potency | – | CC(C)(C)OC(=O)C=Cc1ccc(CN(C(=O)C2CCCCC2)c2cccc(C=CC(=O)OC(C)(C)C)c2)cc1 [Compound 134]

Row | EC50 [1] [nM] | RE (Tables 1-15) | EC50 [2] | FXR activation (in words) (cell-based reporter assay) | EC50 [3] [nM] | Structure (SMILES)
22 | – | 1.72 | 25 nM | excellent activity | – | COC(=O)/C=C/c1cccc(N(Cc2ccc(-c3ccc(N(C)C)cc3)cc2)C(=O)C2CCCCC2)c1 [Compound 259]
23 | 1830 | 0.13 | – | – | – | COC(=O)/C=C/c1cccc(N(Cc2ccc(/C=C/c3cc(C(F)(F)F)cc(C(F)(F)F)c3)cc2)C(=O)NC(C)C)c1 [Compound 185]
24 | 561 | 0.10 | – | – | – | COC(=O)/C=C/c1cccc(N(Cc2ccc(-c3c(OC)cccc3OC)cc2)C(=O)NC(C)C)c1 [Compound 258]
25 | – | 1.88 | 243 nM | – | – | COCC=Cc1cccc(N(Cc2ccc(C=CC(=O)OC(C)(C)C)cc2)C(=O)C2CCCCC2)c1 [Compound 136]
26 | 89 | 1.71 | – | excellent activity | – | COC(=O)/C=C/c1cccc(N(Cc2ccc(-c3ccc(OC)cc3)cc2)C(=O)C2CCCCC2)c1 [Compound 229]
27 | > 1000 | 0.10 | – | – | – | COC(=O)/C=C/c1cccc(N(Cc2cccc(Br)c2)C(=O)C2CCCCC2)c1 [Compound 113]
28 | 219 | 0.78 | – | – | – | COC(=O)/C=C/c1cccc(N(Cc2ccc(-c3ccc(OC(F)(F)F)cc3)cc2)C(=O)C(C)C)c1 [Compound 251]
29 | – | – | – | inactive | – | COc1c(CN(C(=O)C2CC2)c2cccc(/C=C/C#N)c2)ccc2c1OC(C)(C)C=C2 [Compound 34]
30 | 96 | 1.51 | – | excellent activity | – | COC(=O)/C=C/c1cccc(N(Cc2ccc(-c3ccc4c(c3)OCO4)cc2)C(=O)NC(C)C)c1 [Compound 246]
31 | 95 | 0.10 | – | excellent activity | – | COC(=O)/C=C/c1cccc(N(Cc2ccc(-c3c(OC)cccc3OC)cc2)C(=O)C(C)C)c1 [Compound 257]
32 | 238 | 1.96 | 127 to 250 nM and 205 to 236 nM | – | – | COC(=O)/C=C/c1cccc(N(Cc2ccc(/C=C/C(=O)OC(C)(C)C)cc2)C(=O)c2ccccc2)c1 [Compound 143]
33 | 178 | 0.23 | – | – | – | COC(=O)/C=C/c1cccc(N(Cc2ccc(-c3ccc(SC)cc3)cc2)C(=O)NC(C)C)c1 [Compound 217]
34 | – | – | – | did not improve the activity | – | COC(=O)C=Cc1cccc(N(Cc2ccc3c(c2OC)OC(C)(C)C(O)C3N2CCCCC2)C(=O)c2ccccc2)c1 (stereo not drawn) [Compound 100]
35 | > 1000 | 0.38 | – | – | – | COC(=O)C=Cc1cccc(N(Cc2ccc(C=CC(=O)OC(C)(C)C)cc2OCc2ccccc2)C(=O)C2CCCCC2)c1 [Compound 163]
36 | > 1000 | 0.12 | – | – | – | COC(=O)C=Cc1cccc(N(Cc2ccc(C=CC(=O)OC(C)(C)C)cc2O)C(=O)C2CCCCC2)c1 [Compound 161]
37 | 3050 | 0.41 | – | – | – | COC(=O)/C=C/c1cccc(N(Cc2ccc(-c3ccc(F)c(Cl)c3)cc2)C(=O)NC(C)C)c1 [Compound 249]
38 | – | – | – | – | 5000 to 10000 | COc1cc(CN(CC(C)C)C(=O)c2ccccc2)cc2c1OC(C)(C)C=C2 [Compound 20]
39 | 431 | 0.14 | – | – | – | COC(=O)/C=C/c1cccc(N(Cc2ccc(/C=C/c3c(C)cc(C)cc3C)cc2)C(=O)NC(C)C)c1 [Compound 197]
40 | 72 | 1.70 | – | excellent activity | – | COC(=O)/C=C/c1cccc(N(Cc2ccc(-c3ccc(F)c(F)c3)cc2)C(=O)C2CCCCC2)c1 [Compound 213]
41 | – | 1.74 | 220 nM | – | – | CCOCC=Cc1cccc(N(Cc2ccc(C=CC(=O)OC(C)(C)C)cc2)C(=O)C2CCCCC2)c1 [Compound 137]

Row | Structure (SMILES) | EC50 [1] [nM] | RE (Tables 1-15) | EC50 [2] | FXR activation (in words) (cell-based reporter assay) | EC50 [3] [nM]
42 | COC(=O)C=Cc1cccc(N(Cc2ccc(C=Cc3ccccc3F)cc2)C(=O)C2CCCCC2)c1 [Compound 192] | 64 | 1.41 | – | excellent activity; also recorded: among the most active | –
43 | COC(=O)/C=C/c1cccc(N(Cc2ccc3c(c2OC)OC(C)(C)[C@@H](OC(C)=O)[C@H]3OC(C)=O)C(=O)c2ccccc2)c1 (relative stereo) [Compound 95] | – | – | – | Nor did the addition of H-bond acceptors such as in 89, 90, 95, 99 and 101 improve the ability of the parent compound 68 to activate FXR | –
44 | COC(=O)/C=C/c1ccc(N(Cc2ccc3c(c2OC)OC(C)(C)C=C3)C(=O)C2CC2)cc1 [Compound 53] | – | – | – | does not activate FXR under the conditions tested | –
45 | COC(=O)C=Cc1cccc(N(Cc2ccc3c(c2OC)OC(C)(C)C(OC(C)=O)C3Sc2ccccc2)C(=O)c2ccccc2)c1 (stereo not drawn) [Compound 99] | – | – | – | Nor did the addition of H-bond acceptors such as in 89, 90, 95, 99 and 101 improve the ability of the parent compound 68 to activate FXR | –
46 | COC(=O)/C=C/c1cccc(N(Cc2ccc3c(c2OC)OC(C)(C)C=C3)C(=O)C2CC2)c1 [Compound 29] | – | – | – | substantially better activator of FXR than compound 26; also recorded: capable of activating FXR to a significant extent | –
